The values that follow are results of earlier work, collected in US20260110003A1 (Solugen, Inc., priority 2022, published 2026).

B1: ZmPDC: Zymomonas mobilis pyruvate decarboxylase (protein, UniProt P06672 1-568, looked up)
Pyruvate decarboxylase: MSYTVGTYLAERLVQIGLKHHFAVAGDYNLVLLDNLLLNKNMEQVYCCNELNCGFSAEGYARAKGAAAAVVTYSVGALSAFDAIGGAYAENLPVILISGAPNNNDHAAGHVLHHALGKTDYHYQLEMAKNITAAAEAIYTPEEAPAKIDHVIKTALREKKPVYLEIACNIASMPCAAPGPASALFNDEASDEASLNAAVEETLKFIANRDKVAVLVGSKLRAAGAEEAAVKFADALGGAVATMAAAKSFFPEENPHYIGTSWGEVSYPGVEKTMKEADAVIALAPVFNDYSTTGWTDIPDPKKLVLAEPRSVVVNGIRFPSVHLKDYLTRLAQKVSKKTGALDFFKSLNAGELKKAAPADPSAPLVNAEIARQVEALLTPNTTVIAETGDSWFNAQRMKLPNGARVEYEMQWGHIGWSVPAAFGYAVGAPERRNILMVGDGSFQLTAQEVAQMVRLKLPVIIFLINNYGYTIEVMIHDGPYNNIKNWDYAGLMEVFNGNGGYDSGAGKGLKAKTGGELAEAIKVALANTDGPTLIECFIGREDCTEELVKWGKRVAAANSRKPVNKLL

Where only a bound is given, the exact number is not on record here.

For one data set the following is noted: aqueous (Aq) or organic (Org) phase in the MPER.
`CC=O` [Acetaldehyde]: the “Prefers Phase” value was “Aq”.
For the molecule `CCO` [Ethanol], the “Prefers Phase” value is listed as “Both”.
Take `CCOC(=O)C(C)=O` [Ethyl Pyruvate]: the “Prefers Phase” value is on record as “Org”.
`CC(=O)C(=O)O` [Pyruvate ion]: the “Prefers Phase” value is “Aq”.
As to `CC(=O)C(=O)O` [Pyruvic Acid], the “Prefers Phase” value is “Aq”.

The same data set, now with this note: partition coefficient; <0 preference for aqueous, >0 for organic.
On to `CC=O` [Acetaldehyde], for which the LogP is −0.34.
Turning to `CCOC(=O)C(C)=O` [Ethyl Pyruvate], the LogP is listed as 0.4.
Consider `CC(=O)C(=O)O` [Pyruvate ion], for which the LogP is recorded as <<0.
For the molecule `CC(=O)C(=O)O` [Pyruvic Acid], the LogP is −0.3.

The conditions of a further data set: relative to VvSucA.
Regarding B1, the “more acetoin produced than VvSucA” value is listed as 57%.

Broadly, the LogP is the decadic logarithm of the partition coefficient of the neutral form, usually between octanol and water.
